Reference: patent US8729103B2, “Silent desensitizers of neuronal nAChR and methods of use thereof” (priority 2008, dated 2014)

Legend:
[1] = in vivo; cited from earlier work
α4β2 nAChRs [2] = target: T1, α4β2 nAChRs (Rattus norvegicus, UniProt P09483+P12390); assay: [3H]epibatidine competition binding, α4β2 nAChR; conditions: triazole in place of alkyne
T1 construct: expressed in transfected cells; host or cells: HEK293 (KXα4β2)
Experimental: The cell lines KXα3β4R2, expressing rat α3β4 nAChRs, and KXα4β2, expressing rat α4β2 nAChRs, were established previously by stably transfecting human embryonic kidney 293 cells with combinations of rat nAChR subunit genes. These cell lines are maintained in minimum essential medium supplemented with 10% fetal bovine serum, 100 units/mL penicillin G, […] streptomycin, and 0.7 mg/mL G418 (Geneticin) at 37° C. with 5% CO2 in a humidified incubator. The cell line SH-EP1-pcDNA-hα4β2, expressing human α4β2 nAChRs, was described previously and are available. […]
The Ki values of compounds for binding to α3β4, α4β2 and other nAChR sub-types will be measured by competition experiments with [3H]epibatidine or other labeled ligands. […]
In brief, cultured cells at above about 80% confluence will be removed from their flasks (80 cm^2) with a disposable cell scraper and will be placed in 10 mL of 50 mM Tris-HCl buffer, pH 7.4, 4° C. […] Nonspecific binding will be assessed in parallel incubations in the presence of 300 μM nicotine. […] The filter-retained radioactivity will be measured by liquid scintillation counting. […] Data from saturation and competition binding assays will be analyzed using Prism 4 (GraphPad Software, San Diego, Calif.).

α4β2 nAChRs [3] = target: T2, α4β2 nAChRs (Homo sapiens, UniProt P17787+P43681); conditions: added alone; cited from earlier work
T2 construct: expressed in transfected cells; host or cells: SH-EP1 (SH-EP1-pcDNA-hα4β2)

[4] = stability of the isolated HCl salt on exposure to air; type: physicochemical; conditions: white solid, larger scale
Excerpt: A gram-scale synthesis of sazetidine A is outlined in FIG. 1a. The Boc-protected azidityl methyl alcohol 2 and 3-bromo-5-hydroxy pyridine (3) are both commercially available. Treatment with PPh3 and DEAD according to the Mitsunobu protocol formed ether derivative 4 in 70% yield. Palladium-mediated coupling of the bromo-substituted pyridine 4 with 5-hexyn-1-ol under modified Sonogashira conditions furnished Boc-protected sazetidine A in 73% yield. Deprotection of the Boc-group with HCl was expected to give sazetidine A in salt form as published in the literature.

Clc1ccc(C2CC3CCC2N3)cn1 (stereo not shown) [Epibatidine]
analgesic potency relative to morphine [1]: ~200 times

OCCCCc1cn(-c2cncc(OCC3CCN3)c2)nn1 (stereo not shown) [triazetidine O]
decrease in Ki relative to sazetidine A (α4β2 nAChRs [2]): approximately 10 fold

OCCCCC#Cc1cncc(OCC2CCN2)c1 (stereo not shown) [sazetidine A]
agonist activity at α4β2 nAChRs (α4β2 nAChRs [3]): only low agonist activity | stability of the HCl salt on exposure to air [4]: immediately resulted in decomposition
